Measurements: ChEMBL document CHEMBL1128575, “Nonpeptidic inhibitors of human leukocyte elastase. 5. Design, synthesis, and X-ray crystallography of a series of orally active 5-aminopyrimidin-6-one-containing trifluoromethyl ketones” (J Med Chem, 1995)
Converted amounts (≈) assume the structure as drawn. One block for each molecule: values may come before it. The source made the active and inactive calls. No cut-off for these calls is given here.

How the values were obtained:
[1] = Partition coefficient (logP); type: physicochemical; conditions: octanol/water
Cricetinae gen. sp. [2] = test: Oral dose of 20 mg/Kg (30 min prior to instillation of elastase) was tested for the inhibition of elastase-induced lung hemorrhage in hamster; type: functional, Cricetulus griseus
[3] = Selectivity ratio for bovine pancreatic chymotrypsin and HLE
Cricetinae gen. sp. [4] = test: Oral dose of 20 mg/Kg (30 min prior to instillation of elastase) was tested for the inhibition of elastase-induced lung hemorrhage in hamster; Not active; type: functional, organism-based; conditions: Cricetulus griseus
Neutrophil elastase = target: T1, Neutrophil elastase (Homo sapiens, UniProt P08246); test: In vitro inhibition of human leukocyte elastase mediated hydrolysis of the synthetic substrate MeO-Suc-Ala-Ala-Pro-Val-pNA
T1 sequence (P08246 whole entry): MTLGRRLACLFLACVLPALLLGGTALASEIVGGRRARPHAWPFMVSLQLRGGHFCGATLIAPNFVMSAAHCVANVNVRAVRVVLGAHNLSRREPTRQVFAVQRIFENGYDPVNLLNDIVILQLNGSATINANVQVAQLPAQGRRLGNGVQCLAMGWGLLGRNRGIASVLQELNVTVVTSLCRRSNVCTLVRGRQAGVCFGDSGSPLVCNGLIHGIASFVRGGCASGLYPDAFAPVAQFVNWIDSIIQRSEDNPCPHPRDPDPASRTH

Cricetinae gen. sp. [5] = test: Oral dose of 2.5 mg/Kg (30 min prior to instillation of elastase) was tested for the inhibition of elastase-induced lung hemorrhage in hamster; type: functional, Cricetulus griseus
Cricetinae gen. sp. [6] = test: Oral dose of 2.5 mg/Kg (90 min prior to instillation of elastase) was tested for the inhibition of elastase-induced lung hemorrhage in hamster; type: functional, Cricetulus griseus
Cricetinae gen. sp. [7] = test: Compound at an oral dose of 2.5 mg/Kg (90 min prior to instillation of elastase) was tested for the inhibition of elastase-induced lung hemorrhage in hamster; Not active; type: functional, organism-based; conditions: Cricetulus griseus
Cricetinae gen. sp. [8] = test: Compound at an oral dose of 20 mg/Kg (90 min prior to instillation of elastase) was tested for the inhibition of elastase-induced lung hemorrhage in hamster; type: functional, Cricetulus griseus
Cricetinae gen. sp. [9] = test: Oral dose of 2.5 mg/Kg (30 min prior to instillation of elastase) was tested for the inhibition of elastase-induced lung hemorrhage in hamster; Not active; type: functional, organism-based; conditions: Cricetulus griseus
[10] = Half life in plasma in rat at 10 mg/kg oral dose; type: ADME, organism-based; parameters: dose 10 mg/kg, route oral
[11] = Half life in plasma in hamster at 10 mg/kg oral dose; type: ADME, organism-based; parameters: dose 10 mg/kg, route oral; conditions: cricetinae
[12] = Area under the concentration vs time curve in hamster at 10 mg/kg oral dose; type: ADME, organism-based; parameters: dose 10 mg/kg, route oral; conditions: cricetinae, in vivo
[13] = Half life in plasma in dog at 10 mg/kg oral dose; type: ADME, organism-based, Canis lupus familiaris; parameters: dose 10 mg/kg, route oral
[14] = Area under the concentration vs time curve in rat at 10 mg/kg oral dose; type: ADME, organism-based; parameters: dose 10 mg/kg, route oral; conditions: in vivo
[15] = Area under the concentration vs time curve in dog at 10 mg/kg oral dose; type: ADME, organism-based, Canis lupus familiaris; parameters: dose 10 mg/kg, route oral; conditions: in vivo
[16] = Maximum concentration in plasma recorded 0-6 hr post dose in dog at 10 mg/kg oral dose; type: ADME, organism-based, Canis lupus familiaris; parameters: dose 10 mg/kg, route oral
[17] = Tmax is the time of maximum concentration in hamster at 10 mg/kg oral dose; type: ADME, organism-based; parameters: dose 10 mg/kg, route oral; conditions: cricetinae, in vivo
[18] = Tmax is the time of maximum concentration in dog at 10 mg/kg oral dose; type: ADME, organism-based, Canis lupus familiaris; parameters: dose 10 mg/kg, route oral; conditions: in vivo
[19] = Maximum concentration in plasma recorded in the period 0-6 hr post dose in rat at 10 mg/kg oral dose; type: ADME, organism-based; parameters: dose 10 mg/kg, route oral
[20] = Maximum concentration in plasma recorded in the period 0-6 hr post dose in hamster at 10 mg/kg oral dose; type: ADME, organism-based; parameters: dose 10 mg/kg, route oral; conditions: cricetinae
[21] = Tmax is the time of maximum concentration in rat at 10 mg/kg oral dose; type: ADME, organism-based; parameters: dose 10 mg/kg, route oral; conditions: in vivo
[22] = Solubility of compound in 0.01 M sodium phosphate buffer at pH = […]; type: physicochemical; conditions: pH 7.4

- logP [1]: 2.1
Compound: CC(C)C(NC(=O)Cn1c(-c2ccccc2)ncc(NC(=O)OCc2ccccc2)c1=O)C(=O)C(F)(F)F (stereo unspecified)
- inhibition in vivo at 20 mg/kg (Cricetinae gen. sp. [2]): 54%

- Ratio [3]: 272
- Ki (Neutrophil elastase): 8.1 nM
Compound: COc1ccc(-c2ncc(NC(=O)OCc3ccccc3)c(=O)n2CC(=O)NC(C(=O)C(F)(F)F)C(C)C)cc1 (stereo unspecified)
- inhibition (Cricetinae gen. sp. [4]): inactive

- Ki (Neutrophil elastase): 52 nM
Compound: CC(C)C(NC(=O)Cn1c(-c2cccs2)ncc(N)c1=O)C(=O)C(F)(F)F (stereo unspecified)
- inhibition in vivo at 2.5 mg/kg (Cricetinae gen. sp. [5]): 47%
- inhibition in vivo at 2.5 mg/kg (Cricetinae gen. sp. [6]): 37%
- inhibition in vivo at 20 mg/kg (Cricetinae gen. sp. [2]): 75%

- Ki (Neutrophil elastase): 94 nM
Compound: CC(C)C(NC(=O)Cn1c(-c2ccccc2)ncc(NC(=O)C(F)(F)F)c1=O)C(=O)C(F)(F)F (stereo unspecified)
- inhibition in vivo at 2.5 mg/kg (Cricetinae gen. sp. [5]): 37%
- inhibition (Cricetinae gen. sp. [7]): inactive
- inhibition in vivo at 20 mg/kg (Cricetinae gen. sp. [2]): 73%

- Ki (Neutrophil elastase): 46 nM
Compound: CNc1cnc(-c2ccc(F)cc2)n(CC(=O)NC(C(=O)C(F)(F)F)C(C)C)c1=O (stereo unspecified)
- inhibition in vivo at 2.5 mg/kg (Cricetinae gen. sp. [5]): 43%
- inhibition (Cricetinae gen. sp. [7]): inactive
- inhibition in vivo at 20 mg/kg (Cricetinae gen. sp. [2]): 89%

- Ki (Neutrophil elastase): 40 nM
Compound: CC(C)C(NC(=O)Cn1c(-c2ccccc2)ncc(NC(=O)OCC(F)(F)F)c1=O)C(=O)C(F)(F)F (stereo unspecified)
- inhibition in vivo at 20 mg/kg (Cricetinae gen. sp. [8]): 47%
- inhibition in vivo at 2.5 mg/kg (Cricetinae gen. sp. [6]): 39%

- Ki (Neutrophil elastase): 72 nM
Compound: CC(C)C(NC(=O)Cn1c(-c2cc(C(F)(F)F)cc(C(F)(F)F)c2)ncc(NC(=O)OCc2ccccc2)c1=O)C(=O)C(F)(F)F (stereo unspecified)
- inhibition (Cricetinae gen. sp. [4]): inactive

- Ki (Neutrophil elastase): 1.6 nM
Compound: CC(C)C(NC(=O)Cn1c(-c2ccc(F)cc2)ncc(NS(=O)(=O)C2CCCCC2)c1=O)C(=O)C(F)(F)F (stereo unspecified)
- inhibition (Cricetinae gen. sp. [9]): inactive

- Ratio [3]: 406
- Ki (Neutrophil elastase): 17 nM
Compound: CC(C)C(NC(=O)Cn1c(-c2ccc([N+](=O)[O-])cc2)ncc(NC(=O)OCc2ccccc2)c1=O)C(=O)C(F)(F)F (stereo unspecified)
- inhibition (Cricetinae gen. sp. [4]): inactive

- Ki (Neutrophil elastase): 270 nM
Compound: CC(C)C(NC(=O)Cn1c(-c2cc(F)cc(F)c2)ncc(N)c1=O)C(=O)C(F)(F)F (stereo unspecified)
- inhibition in vivo at 2.5 mg/kg (Cricetinae gen. sp. [6]): 45%
- inhibition in vivo at 20 mg/kg (Cricetinae gen. sp. [2]): 72%

- Ratio [3]: 322
- Ki (Neutrophil elastase): 18 nM
Compound: CC(C)C(NC(=O)Cn1c(-c2ccc(Cl)cc2)ncc(NC(=O)OCc2ccccc2)c1=O)C(=O)C(F)(F)F (stereo unspecified)
- inhibition (Cricetinae gen. sp. [4]): inactive

- Ki (Neutrophil elastase): 16 nM
Compound: CSC(=O)Nc1cnc(-c2ccccc2)n(CC(=O)NC(C(=O)C(F)(F)F)C(C)C)c1=O (stereo unspecified)
- inhibition in vivo at 20 mg/kg (Cricetinae gen. sp. [8]): 57%
- inhibition in vivo at 2.5 mg/kg (Cricetinae gen. sp. [6]): 32%

- half-life [10]: 1.6 h
- half-life [11]: 1.35 h
- AUC [12]: 1190 ng·h/mL
- half-life [13]: 0.967 h
- AUC [14]: 5170 ng·h/mL
- AUC [15]: 5950 ng·h/mL
- Cmax [16]: 3230 ng/mL
- Tmax [17]: 0.25 h
- Tmax [18]: 1 h
- Cmax [19]: 1900 ng/mL
- Cmax [20]: 750 ng/mL
- Tmax [21]: 1 h
Compound: CC(C)C(NC(=O)Cn1c(-c2ccc(F)cc2)ncc(N)c1=O)C(=O)C(F)(F)F (stereo unspecified)
- inhibition in vivo at 2.5 mg/kg (Cricetinae gen. sp. [5]): 43%
- inhibition in vivo at 2.5 mg/kg (Cricetinae gen. sp. [6]): 49%
- inhibition in vivo at 20 mg/kg (Cricetinae gen. sp. [2]): 66%

- Ki (Neutrophil elastase): 48 nM
Compound: CC(C)C(NC(=O)Cn1c(-c2cccs2)ncc(NC(=O)OCC(F)(F)F)c1=O)C(=O)C(F)(F)F (stereo unspecified)
- inhibition in vivo at 20 mg/kg (Cricetinae gen. sp. [8]): 60%
- inhibition in vivo at 2.5 mg/kg (Cricetinae gen. sp. [6]): 41%

- Ki (Neutrophil elastase): 6.2 nM
Compound: CC(C)C(NC(=O)Cn1c(-c2ccc(F)cc2)ncc(N)c1=O)B1OC(C)(C)C(C)(C)O1 (stereo unspecified)
- inhibition (Cricetinae gen. sp. [9]): inactive
- inhibition in vivo at 20 mg/kg (Cricetinae gen. sp. [2]): 39%

- Ki (Neutrophil elastase): 27 nM
Compound: CC(C)C(NC(=O)Cn1c(-c2cccs2)ncc(NC(=O)OC(C)(C)C)c1=O)C(=O)C(F)(F)F (stereo unspecified)
- inhibition in vivo at 2.5 mg/kg (Cricetinae gen. sp. [5]): 50%
- inhibition in vivo at 2.5 mg/kg (Cricetinae gen. sp. [6]): 33%
- inhibition in vivo at 20 mg/kg (Cricetinae gen. sp. [2]): 92%

- Ki (Neutrophil elastase): 4.9 nM
Compound: CC(C)C(NC(=O)Cn1c(-c2cccs2)ncc(N)c1=O)B1OC(C)(C)C(C)(C)O1 (stereo unspecified)
- inhibition (Cricetinae gen. sp. [9]): inactive
- inhibition in vivo at 20 mg/kg (Cricetinae gen. sp. [2]): 50%

- Ki (Neutrophil elastase): 3.6 nM
Compound: CC(C)C(NC(=O)Cn1c(-c2ccc(N)cc2)ncc(NC(=O)OCc2ccccc2)c1=O)C(=O)C(F)(F)F (stereo unspecified)
- inhibition (Cricetinae gen. sp. [4]): inactive

- Ratio [3]: 245
- Ki (Neutrophil elastase): 33 nM
- solubility [22]: 580 µg/mL (≈ 1090 µM)
- logP [1]: 1.3
Compound: CC(C)C(NC(=O)Cn1c(-c2cccnc2)ncc(NC(=O)OCc2ccccc2)c1=O)C(=O)C(F)(F)F (stereo unspecified)
- inhibition in vivo at 20 mg/kg (Cricetinae gen. sp. [2]): 59%
